Measurements reported in ChEMBL document CHEMBL2016543, “New tacrine-4-oxo-4H-chromene hybrids as multifunctional agents for the treatment of Alzheimer's disease, with cholinergic, antioxidant, and β-amyloid-reducing properties” (J Med Chem, 2012).
Activity calls are given as the source filed them. No cut-off for these calls is given here. Starred links: 1 amine or outer side, 2 acyl side, 3 side chain; linkers in the order of their positions; H or OH if unused. Non-standard residues stand in square brackets, D forms with d. Residues, ends and D or L forms follow the SMILES beside them. LeuΨ(S-CHOHCH2)Ala = CC(C)C[C@H](N[*:1])[C@@H](O)C[C@@H](C)C(=O)[*:2]

What was measured:
Acetylcholinesterase [1] = target: T1, Acetylcholinesterase (Bos taurus, UniProt P23795)
T1 sequence (P23795 whole entry): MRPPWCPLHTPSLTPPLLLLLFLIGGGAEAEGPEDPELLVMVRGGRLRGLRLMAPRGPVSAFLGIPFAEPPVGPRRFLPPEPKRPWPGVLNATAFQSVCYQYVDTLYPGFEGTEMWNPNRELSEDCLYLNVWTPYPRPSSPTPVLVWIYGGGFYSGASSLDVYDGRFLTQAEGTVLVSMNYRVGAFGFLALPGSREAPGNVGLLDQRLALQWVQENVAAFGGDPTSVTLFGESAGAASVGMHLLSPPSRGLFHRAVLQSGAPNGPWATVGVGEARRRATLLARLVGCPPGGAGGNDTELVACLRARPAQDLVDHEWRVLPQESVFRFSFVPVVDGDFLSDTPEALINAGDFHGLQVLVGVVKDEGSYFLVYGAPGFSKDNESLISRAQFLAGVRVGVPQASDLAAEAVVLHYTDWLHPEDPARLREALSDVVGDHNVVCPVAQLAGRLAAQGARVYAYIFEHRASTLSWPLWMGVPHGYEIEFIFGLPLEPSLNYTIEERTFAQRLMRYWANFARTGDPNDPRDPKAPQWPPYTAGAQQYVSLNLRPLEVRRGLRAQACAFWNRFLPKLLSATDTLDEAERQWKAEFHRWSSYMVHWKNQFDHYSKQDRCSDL
Description: (§1) Inhibition of bovine erythrocytes AChE by Ellman's method

Cholinesterase [2] = target: Cholinesterase (Equus caballus, UniProt P81908)
Description: (§2) Inhibition of horse serum BChE by Ellman's method

Beta-secretase 1 [3] = target: T2, Beta-secretase 1 (Homo sapiens, UniProt P56817)
Description: Inhibition of human recombinant BChE using panvera peptide as substrate preincubated for 60 mins before substrate addition by FRET assay

Beta-secretase 1 [4] = target: T2, Beta-secretase 1; assay: Competitive inhibition of human recombinant […] using panvera peptide as substrate preincubated for 60 mins before substrate addition by FRET assay
Cholinesterase [5] = target: T3, Cholinesterase (Homo sapiens, UniProt P06276)
Description: Inhibition of human serum BChE by Ellman's method

in vitro = conditions: PAMPA, pH 7.4
Description: Permeability of the compound in phosphate buffer at pH 7.4 by PAMPA

Acetylcholinesterase [6] = target: Acetylcholinesterase (Homo sapiens, UniProt P22303)
Description: Inhibition of human erythrocytes AChE by Ellman's method

[7] = target: Cholinesterase (Equus caballus) (UniProt P81908)
Description: as §2

[8] = target: T4, Acetylcholinesterase (Bos taurus) (UniProt P23795)
T4 sequence (whole entry): T1 sequence (P23795 whole entry)
Description: as §1

Cholinesterase [9] = target: T3, Cholinesterase; assay: Ratio of tacrine IC50 to compound IC50 for human serum BChE

Chain of Cholinesterase (Equus caballus, UniProt P81908) (P81908 whole entry): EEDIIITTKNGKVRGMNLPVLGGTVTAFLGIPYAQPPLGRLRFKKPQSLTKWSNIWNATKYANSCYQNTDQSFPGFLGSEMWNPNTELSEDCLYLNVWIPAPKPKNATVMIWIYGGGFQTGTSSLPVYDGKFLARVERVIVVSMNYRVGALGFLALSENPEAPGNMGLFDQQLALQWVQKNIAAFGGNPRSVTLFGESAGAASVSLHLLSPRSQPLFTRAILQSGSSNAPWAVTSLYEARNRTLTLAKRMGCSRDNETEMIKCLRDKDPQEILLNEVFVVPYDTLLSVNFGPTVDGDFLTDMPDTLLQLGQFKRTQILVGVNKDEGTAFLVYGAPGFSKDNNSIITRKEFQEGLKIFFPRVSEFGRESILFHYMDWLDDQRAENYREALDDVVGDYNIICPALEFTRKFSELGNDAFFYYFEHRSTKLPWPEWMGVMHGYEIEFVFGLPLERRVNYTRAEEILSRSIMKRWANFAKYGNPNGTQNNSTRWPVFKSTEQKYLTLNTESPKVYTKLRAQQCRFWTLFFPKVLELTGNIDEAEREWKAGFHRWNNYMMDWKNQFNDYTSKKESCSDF
Chain of Acetylcholinesterase (Homo sapiens, UniProt P22303) (P22303 whole entry): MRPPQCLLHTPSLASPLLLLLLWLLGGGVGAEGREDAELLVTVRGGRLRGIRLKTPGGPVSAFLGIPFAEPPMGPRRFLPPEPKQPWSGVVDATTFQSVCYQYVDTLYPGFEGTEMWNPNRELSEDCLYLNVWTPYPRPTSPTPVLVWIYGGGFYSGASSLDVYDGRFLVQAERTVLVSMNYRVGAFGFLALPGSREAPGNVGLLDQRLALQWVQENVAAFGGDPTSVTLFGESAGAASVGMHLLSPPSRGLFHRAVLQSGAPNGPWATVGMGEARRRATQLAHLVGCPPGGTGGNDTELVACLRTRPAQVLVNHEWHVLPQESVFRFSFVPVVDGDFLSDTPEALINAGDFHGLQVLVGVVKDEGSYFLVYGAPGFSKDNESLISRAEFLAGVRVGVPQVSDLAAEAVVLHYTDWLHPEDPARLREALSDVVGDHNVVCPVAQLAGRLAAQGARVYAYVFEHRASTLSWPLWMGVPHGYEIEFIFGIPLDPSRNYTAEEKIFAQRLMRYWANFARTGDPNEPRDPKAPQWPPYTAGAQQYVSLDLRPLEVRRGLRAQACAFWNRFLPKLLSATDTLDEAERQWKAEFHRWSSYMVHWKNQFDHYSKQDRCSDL
T3 sequence (P06276 whole entry): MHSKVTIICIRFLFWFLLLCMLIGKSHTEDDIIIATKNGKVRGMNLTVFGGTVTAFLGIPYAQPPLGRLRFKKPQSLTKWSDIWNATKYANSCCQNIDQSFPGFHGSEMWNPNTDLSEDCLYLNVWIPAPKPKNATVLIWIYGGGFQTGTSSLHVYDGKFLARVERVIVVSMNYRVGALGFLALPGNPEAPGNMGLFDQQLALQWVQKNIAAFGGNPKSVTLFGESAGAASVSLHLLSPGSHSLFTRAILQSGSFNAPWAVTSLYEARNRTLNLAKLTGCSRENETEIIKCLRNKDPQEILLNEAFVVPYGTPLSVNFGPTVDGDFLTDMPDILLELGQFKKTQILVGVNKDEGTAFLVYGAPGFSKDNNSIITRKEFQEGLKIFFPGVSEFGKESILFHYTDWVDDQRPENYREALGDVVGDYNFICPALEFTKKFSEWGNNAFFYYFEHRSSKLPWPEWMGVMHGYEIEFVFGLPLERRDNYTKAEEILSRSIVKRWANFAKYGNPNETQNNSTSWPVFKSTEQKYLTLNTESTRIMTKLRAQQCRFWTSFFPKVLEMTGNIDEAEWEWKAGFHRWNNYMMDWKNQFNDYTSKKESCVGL
T2 sequence (P56817 whole entry): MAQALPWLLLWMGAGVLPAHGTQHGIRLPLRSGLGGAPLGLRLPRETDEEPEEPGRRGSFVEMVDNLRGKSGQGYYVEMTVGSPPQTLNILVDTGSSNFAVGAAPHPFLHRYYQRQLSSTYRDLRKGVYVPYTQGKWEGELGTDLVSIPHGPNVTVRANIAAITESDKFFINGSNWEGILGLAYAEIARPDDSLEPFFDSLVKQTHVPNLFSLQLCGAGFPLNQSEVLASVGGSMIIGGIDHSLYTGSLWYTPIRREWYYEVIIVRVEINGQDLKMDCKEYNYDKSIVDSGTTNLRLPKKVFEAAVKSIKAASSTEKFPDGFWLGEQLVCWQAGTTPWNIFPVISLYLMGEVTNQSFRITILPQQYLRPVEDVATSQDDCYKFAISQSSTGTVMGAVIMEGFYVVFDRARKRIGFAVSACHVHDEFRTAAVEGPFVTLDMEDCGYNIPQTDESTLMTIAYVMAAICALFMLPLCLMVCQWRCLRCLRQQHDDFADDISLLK
Chain of Cholinesterase (Equus caballus) (P81908 whole entry): as the sequence (P81908 whole entry) above

Structure (SMILES) | IC50 (Acetylcholinesterase [1]) | IC50 (Cholinesterase [2]) | IC50 (Beta-secretase 1 [3]) | Kic (Beta-secretase 1 [4]) | IC50 (Cholinesterase [5]) | Papp (in vitro) | IC50 (Acetylcholinesterase [6]) | inhibition [7] | inhibition [8] | Ratio IC50 (Cholinesterase [9])
O=C(NCCCCCCCCCCNc1c2c(nc3cc(Cl)cc(Cl)c13)CCCC2)c1cc(=O)c2cc(O)ccc2o1 | 350 nM | 17.5 nM |  |  |  |  |  |  |  | 
CC(C)C[C@H](NC(=O)[C@H](CC(N)=O)NC(=O)[C@@H](NC(=O)[C@@H](N)CC(=O)O)C(C)C)[C@@H](O)C[C@@H](C)C(=O)N[C@@H](C)C(=O)N[C@@H](CC(=O)O)C(=O)N[C@@H](Cc1ccccc1)C(=O)O (H-DVN[LeuΨ(S-CHOHCH2)Ala]ADF-OH) |  |  | 33 nM | 0.0097 µM |  |  |  |  |  | 
COc1cc(OC)c2c(=O)cc(C(=O)NCCCCCCCCCCNc3c4c(nc5ccccc35)CCCC4)oc2c1.Cl | 100 nM | 0.325 nM | 2100 nM | 0.62 µM | 0.1 nM | 14.7 ×10⁻⁶ cm/s | 2.3 nM |  |  | 
Cl.O=C(NCCCCCCCCCCNc1c2c(nc3cc(Cl)ccc13)CCCC2)c1cc(=O)c2cc(O)c(O)cc2o1 | 17.5 nM | 28 nM | 13600 nM | 3.99 µM | 95 nM | 5.3 ×10⁻⁶ cm/s | 0.09 nM |  |  | 
O=c1cc(-c2ccc(O)cc2)oc2cc(O)cc(O)c12 [APIGENIN] |  |  | 38500 nM | 11.3 µM |  |  |  |  |  | 
COc1ccc2oc(C(=O)NCCCCCCCCCCNc3c4c(nc5cc(Cl)cc(Cl)c35)CCCC4)cc(=O)c2c1 | 550 nM | 7.5 nM |  |  |  |  |  |  |  | 
O=C(NCCCCCCCCCCNc1c2c(nc3cc(Cl)cc(Cl)c13)CCCC2)c1cc(=O)c2c(O)cc(O)cc2o1 | 75 nM | 35 nM |  |  |  |  |  |  |  | 
O=C(NCCCCCCCCNc1c2c(nc3ccccc13)CCCC2)c1cc(=O)c2ccccc2o1 | 150 nM | 0.5 nM |  |  |  |  |  |  |  | 
O=C(O)c1cc(=O)c2ccccc2o1 |  |  |  |  |  |  |  | inactive | inactive | 
COc1cc(O)c2c(=O)cc(C(=O)NCCCCCCCCCCNc3c4c(nc5cc(Cl)cc(Cl)c35)CCCC4)oc2c1 | 80 nM | 35 nM |  |  |  |  |  |  |  | 
Cl.O=C(NCCCCCCCCCCNc1c2c(nc3cc(Cl)ccc13)CCCC2)c1cc(=O)c2ccccc2o1 | 5 nM | 0.18 nM | 22400 nM | 6.58 µM | 0.08 nM | 7.1 ×10⁻⁶ cm/s | 0.3 nM |  |  | 
COc1cc2oc(C(=O)NCCCCCCCCCCNc3c4c(nc5cc(Cl)cc(Cl)c35)CCCC4)cc(=O)c2cc1OC | 175 nM | 100 nM |  |  |  |  |  |  |  | 
Cl.O=C(NCCCCCCCCCCNc1c2c(nc3ccccc13)CCCC2)c1cc(=O)c2cc(O)c(O)cc2o1 | 300 nM | 8 nM |  |  | 30 nM | 6.3 ×10⁻⁶ cm/s | 6.5 nM |  |  | 
Cl.O=C(NCCCCCCCCCCNc1c2c(nc3cc(Cl)ccc13)CCCC2)c1cc(=O)c2c(O)cc(O)cc2o1 | 10 nM | 3 nM |  |  | 2.5 nM | 7.8 ×10⁻⁶ cm/s | 0.065 nM |  |  | 
COc1cc2oc(C(=O)NCCCCCCCCCCNc3c4c(nc5cc(Cl)ccc35)CCCC4)cc(=O)c2cc1OC.Cl | 6.5 nM | 0.85 nM |  |  | 50 nM | 7.4 ×10⁻⁶ cm/s | 0.2 nM |  |  | 
O=C(NCCCCCCCNc1c2c(nc3ccccc13)CCCC2)c1cc(=O)c2ccccc2o1 | 100 nM | 1.75 nM |  |  |  |  |  |  |  | 

Structure (SMILES) | IC50 (Acetylcholinesterase [1]) | IC50 (Cholinesterase [2]) | IC50 (Beta-secretase 1 [3]) | Kic (Beta-secretase 1 [4]) | IC50 (Cholinesterase [5]) | Papp (in vitro) | IC50 (Acetylcholinesterase [6]) | inhibition [7] | inhibition [8] | Ratio IC50 (Cholinesterase [9])
O=C(NCCCCCCCCCNc1c2c(nc3ccccc13)CCCC2)c1cc(=O)c2ccccc2o1 | 125 nM | 0.58 nM |  |  |  |  |  |  |  | 
Cl.O=C(NCCCCCCCCCCNc1c2c(nc3ccccc13)CCCC2)c1cc(=O)c2c(O)cc(O)cc2o1 | 500 nM | 0.35 nM | 3600 nM | 1.06 µM | 0.8 nM | 13.1 ×10⁻⁶ cm/s | 2.3 nM |  |  | 
O=C(NCCCCCCCCCCCCNc1c2c(nc3ccccc13)CCCC2)c1cc(=O)c2ccccc2o1 | 150 nM | 0.25 nM |  |  |  |  |  |  |  | 
COc1ccc2oc(C(=O)NCCCCCCCCCCNc3c4c(nc5cc(Cl)ccc35)CCCC4)cc(=O)c2c1.Cl | 5 nM | 0.425 nM | 14400 nM | 4.23 µM | 0.1 nM | 7.5 ×10⁻⁶ cm/s | 0.1 nM |  |  | 
COc1cc(O)c2c(=O)cc(C(=O)NCCCCCCCCCCNc3c4c(nc5ccccc35)CCCC4)oc2c1.Cl | 250 nM | 2 nM | 2900 nM | 0.85 µM | 1 nM | 10.6 ×10⁻⁶ cm/s | 1 nM |  |  | 
COc1cc(OC)c2c(=O)cc(C(=O)NCCCCCCCCCCNc3c4c(nc5cc(Cl)cc(Cl)c35)CCCC4)oc2c1 | 150 nM | 0.75 nM |  |  |  |  |  |  |  | 
Cl.O=C(NCCCCCCCCCCNc1c2c(nc3ccccc13)CCCC2)c1cc(=O)c2cc(O)ccc2o1 | 75 nM | 1 nM | 2800 nM | 0.82 µM | 1.5 nM | 23.1 ×10⁻⁶ cm/s | 8 nM |  |  | 
COc1ccc2oc(C(=O)NCCCCCCCCCCNc3c4c(nc5ccccc35)CCCC4)cc(=O)c2c1.Cl | 35 nM | 0.324 nM |  |  | 0.038 nM | 14.9 ×10⁻⁶ cm/s | 0.775 nM |  |  | 1050
Cl.O=C(NCCCCCCCCCCNc1c2c(nc3ccccc13)CCCC2)c1cc(=O)c2ccccc2o1 | 75 nM | 0.18 nM |  |  | 0.15 nM | 9.1 ×10⁻⁶ cm/s | 17.5 nM |  |  | 
O=C(NCCCCCCCCCCNc1c2c(nc3cc(Cl)cc(Cl)c13)CCCC2)c1cc(=O)c2cc(O)c(O)cc2o1 | 90 nM | 88 nM |  |  |  |  |  |  |  | 
COc1cc2oc(C(=O)NCCCCCCCCCCNc3c4c(nc5ccccc35)CCCC4)cc(=O)c2cc1OC.Cl | 85 nM | 0.55 nM | 3000 nM | 0.88 µM | 15 nM | 15 ×10⁻⁶ cm/s | 1.8 nM |  |  | 
COc1cc(O)c2c(=O)cc(C(=O)NCCCCCCCCCCNc3c4c(nc5cc(Cl)ccc35)CCCC4)oc2c1.Cl | 38 nM | 0.175 nM |  |  | 5 nM | 8.7 ×10⁻⁶ cm/s | 0.035 nM |  |  | 
COc1cc(OC)c2c(=O)cc(C(=O)NCCCCCCCCCCNc3c4c(nc5cc(Cl)ccc35)CCCC4)oc2c1.Cl | 50 nM | 1 nM |  |  | 0.1 nM | 10.7 ×10⁻⁶ cm/s | 0.35 nM |  |  | 
O=C(NCCCCCCCCCCNc1c2c(nc3cc(Cl)cc(Cl)c13)CCCC2)c1cc(=O)c2ccccc2o1 | 1000 nM | 100 nM |  |  |  |  |  |  |  | 
Cl.O=C(NCCCCCCCCCCNc1c2c(nc3cc(Cl)ccc13)CCCC2)c1cc(=O)c2cc(O)ccc2o1 | 80 nM | 3.5 nM |  |  | 1.5 nM | 11.5 ×10⁻⁶ cm/s | 1 nM |  |  | 
